According to patent US10618869B2, “Oligo-benzamide compounds and their use” (The Board of Regents of the University of Texas System, priority 2010, dated 2020):
“Also recorded” adds a separate entry of the source.

Experiments:
PSA and TMPRSS promoter = assay: QPCR of PSA and TMPRSS, DHT-induced; assay type: cell-based
Source text: FIG. 8 confirms these findings by QPCR experiment evaluating the effect of D1 and D2 on DHT-induced TMPRSS and PSA gene expression at the RNA level in LNCaP cells (bottom left panel) and by western blot analyses as evaluated by the effect of D1 and D2 on the expression of PSA, androgen receptor and actin in LAPC4 cells at the protein level. […] Confirmation of these findings were obtained by QPCR and western blot analyses.
(§1) At the protein level, D2, but not D1, was able to block DHT-induced expression of PSA protein. Again, the suppresion of DHT-induced transcription from an ARE could be overcome by overexpression of either AR or PELP1 ([…]). Overexpression of PELP1 was able to rescue the D2-mediated suppression of DHT-induced transcription nearly back to baseline.

AR-PELP1 interaction = assay: DHT-induced AR-PELP1 co-immunoprecipitation in PCa cells; assay type: cell-based
Source text: FIG. 6. Effect of D1 and D2 on DHT induced AR-PELP1 co-immunoprecipitation in LNCaP cells.
FIGS. 7A-C. Effect of D1 and D2 on DHT induced AR-PELP1 co-immunoprecipitation in LNCaP cells. (FIG. 7A) Model depicts the proposed role for D2 in disrupting the interaction between AR and NR Box proteins such as Hsp27 and PELP1. (FIG. 7B) Effect of increasing concentration of D2 on complex formation between AR and NR Box proteins such as Hsp27 and PELP1, as shown for immunoprecipitation with AR (top panel) and with PELP1 (bottom panel). Input lysates are shown at the bottom. (FIG. 7C) Rescue of D2-induced suppression of AR-PELP1 complex formation: Following transient transfection with increasing concentrations of AR (left panel) or increasing concentration of PELP1 (right panel), LnCAP cells were treated with 10 nM DHT for 24 hours following preincubation with D2 or control D1. Extracts were immunoprecipitated with AR and immunoblotted with PELP1, AR or importin.
FIG. 6 provides confirmation that D2 was directed against the LXXLL (SEQ ID NO: 1) motif and was capable of blocking AR and PELP1 interaction in vivo was obtained from coimmunoprecipitation experiments in LnCaP PCa cells.
D2 was also able to block the DHT- and E2-induced interaction of AR with PELP1 in LAPC4, C4-2, VCAP and CWR22v1 cells. […] The ability of D2 to block AR-PELP1 interaction could be overcome by transient over-expression of PELP1 in a dose-dependent manner.

erk = erk phosphorylation after serum starvation (western blot, FIG. 16); assay type: cell-based; settings: following serum starvation, D1 at higher concentrations (500 nM)
Method: FIG. 16. Evidence for utility of higher concentrations of D1 in blocking erk phosphorylation: following serum starvation, cells were treated with either D1 or D2 and assessed for their ability to block erk phosphorylation.
D2, and to a less extent D1, targets a validated target in prostate cancer, has the potential to be an AR-selective modulator, provides a novel mechanism of action, and will likely provide a sustained effect in the context of therapy.

[1] = Storage stability of D2 in DMSO; assay type: physicochemical; settings: room temperature and −70° C., storage 60 days
[2] = system: prostate cancer xenografts; assay: Subcutaneous prostate cancer xenografts; assay type: in vivo, nude mice
Method: (§2) FIGS. 10A-E. D2 blocks proliferation of prostate cancer cells in vitro and in vivo (a) Effect of pretreatment with 100 nM of D1 and D2 on DHT-induced proliferation in multiple prostate cancer cell lines in MTT assay. Numbers are normalized to a baseline of 100, which represents the untreated rate of proliferation. (b) Effect of pretreatment with 100 nM of D1 and D2 on DHT-induced proliferation in LNCaPcells on a Cyquant assay. (c) Dose dependent curve of D2 on proliferation of LAPC4 cells. (d) Rescue of DHT induced proliferation by overexpression of PELP1 following suppression of DHT induced proliferation with 100 nM of D2. (e). Effect of direct intratumoral injections of D1 and D2 on the proliferation of prostate cancer xenografts in animal models: Following establishment of subcutaneous xenografts in animal models, daily direct intratumoral injections of D1 and D2 were performed. Bioluminesence imaging was used to track the growth of the tumors and the effect of D1 and D2 quantitated as shown in the graph.
They have shown that this synthetic peptidomimetic D2 is capable of blocking AR-PELP-1 interaction, nuclear translocation of AR, AR mediated genomic signaling as well as DHT-mediated proliferation of prostate cancer cells in vitro. The IC50 of D2 appears to be around 40 nM. […]

[3] = system: AR binding on PSA promoter; assay: ChIP assay of AR binding on PSA promoter; assay type: cell-based
Source text: FIG. 9. […] This effect of D2 could be rescued by overexpression of AR (bottom left panel) or PELP1 (bottom right panel).
as §1

[4] = system: AR-negative PCa cell lines such as DU145 or PC3; assay: DHT-induced proliferation of AR-negative PCa cell lines; assay type: cell-based
Method: as §2
The importance of PELP1 and AR interaction on DHT-mediated proliferation of prostate cancer cells were confirmed using rescue experiments, where D2 suppression of DHT-mediated proliferation was overcome by overexpression of PELP1 in LNCaP PCa cells.

AR nuclear translocation = assay: DHT-induced nuclear translocation of AR in LNCaP cells; assay type: cell-based
Method: FIGS. 13A-B. Effect on DHT-induced nuclear translocation of exogenous AR-GFP in LNCaP cells transiently transfected with AR. (a) Blue stain is DAPI (for nucleus) and green is AR (GFP). Baseline untreated LNCaP cells are shown in top left panel. Cells were pretreated with DMSO (left panel), 100 nM D1 (middle panel) and 100 nM D2 (right panel) and then treated with 1 nM DHT. AR nuclear translocation was visualized at 4 hours following DHT treatment. (b) Nuclear and cytoplasmic extracts were collected from similar cells and subject to western analyses.
FIG. 13 shos that pretreatment with D2 blocked DHT-induced translocation of AR-GFP to the nucleus in LnCaP cells compared to the control D1 or DMSO.

COC(=O)c1ccc(NC(=O)c2ccc([N+](=O)[O-])c(OCC(C)C)c2)c(OCC(C)C)c1 [D2]
DHT-induced transcription from ARE-driven promoters at RNA level (QPCR) (PSA and TMPRSS promoter): block DHT-induced transcription from ARE-driven promoters was confirmed
stability of AR or PELP1 (AR-PELP1 interaction): did not adversely affect
DHT- and E2-induced interaction of AR with PELP1 (AR-PELP1 interaction; LAPC4, C4-2, VCAP and CWR22v1 cells): able to block
DHT-induced physical interaction of AR and PELP1 (AR-PELP1 interaction; LnCaP cells, preincubation with 100 nM): blocked
AR-PELP1 interaction, dose dependence (AR-PELP1 interaction; increasing concentration, FIG. 7): blocked AR-PELP1 interaction in a dose-dependent manner
erk activation / phosphorylation (erk): blocks at lower concentrations
stability in DMSO [1]: stable in DMSO
growth of prostate cancer cells implanted subcutaneously ([2]; nude mice, intratumoral or intraperitoneal administration): significantly abrogate the growth
AR-PELP1 complex formation in xenograft tumors ([2]; protein extracts of tumors after daily intratumoral injections): biologically active in blocking AR-PELP1 interaction; also recorded: able to block
DHT-induced AR binding on PSA promoter (ChIP) [3]: blocked DHT-induced AR binding; also recorded: blocked AR binding to its cognate DNA sequence
DHT-induced proliferation of AR-negative PCa cell lines [4]: but not AR-negative PCa cell lines
DHT-induced translocation of AR-GFP to the nucleus (imaging) (AR nuclear translocation; 100 nM pretreatment, 1 nM DHT, 4 hours): blocked
AR nuclear translocation (nuclear and cytoplasmic extracts) (AR nuclear translocation; upon addition of DHT): prevents AR nuclear translocation
